Test results reported in patent publication EP2848929A1, “Graphene FET-based biosensor” (AIT Austrian Institute of Technology GmbH, priority 2013, dated 2015).
Read-outs that look alike come from different tables or passages of the source. Values belong to the compound of their own block, whether it stands above or below them.

Experiments:
OBP14 [1] = molecular target: T1, OBP14 (Apis mellifera, UniProt A0A8U0WQC3); test: biochemical; type: binding, honeybees; details: for binding to OBP14 (in words): qualitative ranking from biosensor results; for kon: read-out: [kon] / M^-1s^-1
OBP14 [2] = molecular target: T1, OBP14; details: fluorescent displacement assays, literature; cited from earlier work
[3] = 10^- 6[KD] /M, Table 1, KD = 1/KA from titration, Langmuir model, 1mM PBS, pH = 8.0
[4] = KD, from Langmuir isotherm plot, half saturation concentration (50% surface coverage)
[5] = KD, from the kinetic measurement (titration fitted with Langmuir model)
[6] = Table 1, affinity constant KA = kon/koff from titration, Langmuir model, 1mM PBS, pH = 8.0
[7] = 10^2 [KA] /M^-1, Table 2, affinity constant KA = kon/koff from titration, Langmuir model fit
[8] = 10^-6 [KD] /M, Table 2, KD = 1/KA from titration, Langmuir model fit
[9] = Table 2, affinity constant KA = kon/koff from titration, Langmuir model fit
[10] = dissociation constant of KD, control experiment, eugenol and methyl eugenol on the same sensor device
[11] = Table 2, association rate constant from titration fit
[12] = Table 2, dissociation rate constant from final buffer wash fit, read-out: [ koff] / s^-1

T1 sequence (A0A8U0WQC3 entry or part of it): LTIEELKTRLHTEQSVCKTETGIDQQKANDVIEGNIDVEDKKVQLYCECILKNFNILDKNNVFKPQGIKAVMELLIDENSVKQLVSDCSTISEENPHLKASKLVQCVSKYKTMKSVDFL

Structure (SMILES): CC(C)=CCCC(C)=CC=O (mixture of isomers) [Citral, (2E)-3,7-dimethylocta-2,6-dienal]
- Kd (OBP14 [1]; [3]): 589.2 ± 0.6 µM
- Kd (OBP14 [1]; [4]): 550 µM
- Kd (OBP14 [1]; [5]): 590 µM
- 10^2 [KA] /M^-1 (OBP14 [1]; [6]): 16.97 ± 0.02 10^2 M^-1
- binding to OBP14 (in words) (OBP14 [1]): moderate or weak binders
- koff (OBP14 [1]; read-out: [koff] /s ^-1): 0.0035 s⁻¹

Structure (SMILES): COc1cc(/C=C/C=O)ccc1O [Coniferyl aldehyde, (E)-3-(4-hydroxy-3-methoxyphenyl) prop-2-enal]
- Kd (OBP14 [1]; [7]): 8.06 µM
- Kd (OBP14 [1]; [8]): 9.1 ± 2.3 µM
- koff (OBP14 [1]; read-out: [ koff] / s^-1): 0.003 s⁻¹
- kon (OBP14 [1]): 370 ± 190 M⁻¹ s⁻¹
- affinity to OBP14 (in words) (OBP14 [2]): did not show good affinity

Structure (SMILES): C=CCc1ccc(O)c(OC)c1 [Eugenol, 4-Allyl-2-methoxyphenol]
- koff (OBP14 [1]): 0.003 s⁻¹
- real-time response (ΔIDS) of the biosensor (OBP14 [1]; 5 µM eugenol solution compared with a 10 fold higher concentrated methyl eugenol solution, same sensor device): significantly higher
- Kd (OBP14 [1]; [3]): 9.2 ± 0.7 µM
- Kd (OBP14 [1]; [8]): 9.2 ± 0.7 µM
- Kd (OBP14 [1]; [4]): 1.9 µM
- Kd (OBP14 [1]; [5]): 9.2 µM
- 10^2 [KA] /M^-1 (OBP14 [1]; [6]): 1087 ± 91 10^2 M^-1
- 10^2 [KA] /M^-1 (OBP14 [1]; [9]): 1087 ± 91 10^2 M^-1
- Kd (OBP14 [1]; [10]): 19 µM
- binding to OBP14 (in words) (OBP14 [1]): high affinity
- koff (OBP14 [1]; read-out: [ koff] / s^-1): 0.003 s⁻¹
- koff (OBP14 [1]; read-out: [koff] /s ^-1): 0.003 s⁻¹
- kon (OBP14 [1]): 326 ± 27 M⁻¹ s⁻¹

- Kd (OBP14 [1]; [3]): 1120 ± 5 µM
- 10^2 [KA] /M^-1 (OBP14 [1]; [6]): 8.96 ± 0.04 10^2 M^-1
- binding to OBP14 (in words) (OBP14 [1]): moderate or weak binders
- koff (OBP14 [1]; read-out: [koff] /s ^-1): 0.0077 s⁻¹
Structure (SMILES): CC(C)=CCC/C(C)=C/CO [Geraniol, (2E)-3,7-Dimethylocta-2,6-dien-1-ol]

Structure (SMILES): COc1cc(CC(=O)O)ccc1O [Homovanillic acid, 2-(4-Hydroxy-3-methoxy-phenyl)acetic acid]
- Kd (OBP14 [1]; [3]): 6.5 ± 0.7 µM
- 10^2 [KA] /M^-1 (OBP14 [1]; [6]): 1540 ± 140 10^2 M^-1
- koff (OBP14 [1]; read-out: [koff] /s ^-1): 0.0078 s⁻¹
- affinity to OBP14 (in words) (OBP14 [2]): did not show good affinity

- Kd (OBP14 [1]; Table 1, KD = 1/KA from titration, Langmuir model, 1mM PBS, pH = 8.0, read-out: 10^- 6[KD] /M): 814 ± 58 µM
- 10^2 [KA] /M^-1 (OBP14 [1]; [6]): 12.33 ± 0.86 10^2 M^-1
- [kon] /M^1s^-1 (OBP14 [1]; Table 1, association rate constant from titration fit): 8.3 ± 0.6 M^1s^-1
- koff (OBP14 [1]; Table 1, dissociation rate constant from final buffer wash fit, read-out: [koff] /s ^-1): 0.0068 s⁻¹
- binding to OBP14 (in words) (OBP14 [1]): behave poorly
Structure (SMILES): CC(=O)OCCC(C)C [Isoamyl acetate, 3-methylbutyl acetate]

Structure (SMILES): C=CCc1ccc(OC)c(OC)c1 [Methyl eugenol, 1,2-Dimethoxy-4-prop-2-enylbenzene]
- Kd (OBP14 [1]; [8]): 520 ± 0.1 µM
- 10^2 [KA] /M^-1 (OBP14 [1]; [9]): 19.23 ± 0.03 10^2 M^-1
- kon (OBP14 [1]; [11]): 8.92 ± 0.01 M⁻¹ s⁻¹
- koff (OBP14 [1]; [12]): 0.0046 s⁻¹
- Kd (OBP14 [1]; [10]): 590 µM
- concentration at which equilibrium was achieved, relative to the other odorants (OBP14 [1]; titration curves Fig. 3, compared with three ligands with phenolic based structure): about 10 fold

- Kd (OBP14 [1]; Table 2, KD = 1/KA from titration, Langmuir model fit, read-out: 10^-6 [KD] /M): 22 ± 4.5 µM
- 10^2 [KA] /M^-1 (OBP14 [1]; [9]): 479 ± 136 10^2 M^-1
- kon (OBP14 [1]; [11]): 239 ± 68 M⁻¹ s⁻¹
- koff (OBP14 [1]; [12]): 0.005 s⁻¹
- Kd (OBP14 [1]; from Langmuir isotherm of change in drain current ΔIDS vs odorant concentration [Od] (Fig. 1D), read-out: KD): 10 µM
- Kd (OBP14 [1]; from Langmuir isotherm plot, half saturation concentration (50% surface coverage), read-out: KD): 24 µM
- Kd (OBP14 [1]; from linear relationship between reaction rate constant k and odorant concentration (Fig. 1B), read-out: KD): 30 µM
- Kd (OBP14 [1]; from the kinetic measurement (titration fitted with Langmuir model), read-out: KD): 22 µM
Structure (SMILES): COC(=O)c1ccc(O)c(OC)c1 [Methyl vanillate, Methyl 4-hydroxy-3-methoxybenzoate]

- Kd (OBP14 [1]; [3]): 1410 ± 21 µM
- Kd (OBP14 [1]; [4]): 1500 µM
- Kd (OBP14 [1]; [5]): 1400 µM
- 10^2 [KA] /M^-1 (OBP14 [1]; [6]): 7.07 ± 0.11 10^2 M^-1
- binding to OBP14 (in words) (OBP14 [1]): behave poorly
- koff (OBP14 [1]; read-out: [koff] /s ^-1): 0.0074 s⁻¹
Structure (SMILES): CC(=O)CCC=C(C)C [Sulcatone, 6-Methylhept-5-en-2-one]

Structure (SMILES): COc1cc(C=O)ccc1O [Vanillin, 4-Hydroxy-3-methoxybenzaldehyd]
- Kd (OBP14 [1]; [7]): 20.7 µM
- Kd (OBP14 [1]; [8]): 23.8 ± 6 µM
- kon (OBP14 [1]; [11]): 191 ± 111 M⁻¹ s⁻¹
- koff (OBP14 [1]; [12]): 0.0038 s⁻¹

Structure (SMILES): COc1cc(CCC(C)=O)ccc1O [Vanillyl acetone, 4-(4-hydroxy-3-methoxyphenyl)butan-2-one]
- 10^2 [KA] /M^-1 (OBP14 [1]; [9]): 409.7 ± 0.3 10^2 M^-1
- Kd (OBP14 [1]; read-out: 10^-6 [KD] /M): 24.4 ± 0.02 µM
- koff (OBP14 [1]; read-out: [ koff] / s^-1): 0.007 s⁻¹
- kon (OBP14 [1]): 286.8 ± 0.2 M⁻¹ s⁻¹
